According to patent publication US20220033397A1, “PHARMACEUTICAL COMPOUNDS AND THEIR USE AS INHIBITORS OF UBIQUITIN SPECIFIC PROTEASE 19 (USP19)” (ALMAC DISCOVERY LIMITED, priority 2018, published 2022):

Target: T1, Full-length USP19 (Homo sapiens, UniProt O94966)
T1 construct: Full-length USP19 was purchased from Boston Biochem (E-576); purchased Boston Biochem E-576
T1 sequence (O94966 1-1318): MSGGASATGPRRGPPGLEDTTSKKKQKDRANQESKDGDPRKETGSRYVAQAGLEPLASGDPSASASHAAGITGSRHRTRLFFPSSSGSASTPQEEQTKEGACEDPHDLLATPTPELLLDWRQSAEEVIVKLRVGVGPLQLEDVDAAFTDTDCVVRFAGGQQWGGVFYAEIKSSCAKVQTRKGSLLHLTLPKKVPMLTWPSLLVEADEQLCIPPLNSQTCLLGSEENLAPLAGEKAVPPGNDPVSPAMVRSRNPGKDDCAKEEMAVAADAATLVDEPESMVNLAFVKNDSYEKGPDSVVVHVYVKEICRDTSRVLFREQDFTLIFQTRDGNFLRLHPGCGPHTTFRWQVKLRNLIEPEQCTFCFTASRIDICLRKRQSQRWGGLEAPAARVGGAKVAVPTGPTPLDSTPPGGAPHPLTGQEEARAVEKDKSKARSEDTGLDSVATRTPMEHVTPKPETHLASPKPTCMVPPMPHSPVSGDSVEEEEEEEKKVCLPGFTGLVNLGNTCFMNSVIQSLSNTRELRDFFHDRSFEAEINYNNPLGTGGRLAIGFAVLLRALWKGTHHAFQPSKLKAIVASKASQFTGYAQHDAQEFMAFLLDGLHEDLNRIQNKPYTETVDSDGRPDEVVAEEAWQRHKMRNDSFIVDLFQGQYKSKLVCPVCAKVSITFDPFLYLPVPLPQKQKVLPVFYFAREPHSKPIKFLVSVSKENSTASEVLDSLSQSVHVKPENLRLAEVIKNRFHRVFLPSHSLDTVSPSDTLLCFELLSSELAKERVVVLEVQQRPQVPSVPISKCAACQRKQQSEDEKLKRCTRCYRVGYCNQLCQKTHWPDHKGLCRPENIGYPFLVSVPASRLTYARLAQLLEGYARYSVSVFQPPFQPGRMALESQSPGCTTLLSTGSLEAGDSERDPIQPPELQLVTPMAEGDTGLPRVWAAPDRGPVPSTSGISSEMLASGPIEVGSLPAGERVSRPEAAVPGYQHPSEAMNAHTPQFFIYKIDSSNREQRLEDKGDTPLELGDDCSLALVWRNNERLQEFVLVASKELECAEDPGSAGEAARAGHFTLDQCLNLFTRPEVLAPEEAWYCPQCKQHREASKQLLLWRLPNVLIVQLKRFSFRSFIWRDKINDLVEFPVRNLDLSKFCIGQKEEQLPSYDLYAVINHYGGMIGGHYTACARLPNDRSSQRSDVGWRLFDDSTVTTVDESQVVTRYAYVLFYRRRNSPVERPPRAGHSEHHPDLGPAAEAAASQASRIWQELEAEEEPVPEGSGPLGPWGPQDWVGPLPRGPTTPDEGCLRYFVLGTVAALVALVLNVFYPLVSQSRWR
Assay: USP19 fluorescence polarisation (FP) homogeneous assay with Ubiquitin-Lys-TAMRA substrate
Assay type: biochemical
Details: 2.5 nM USP19, 30 min pre-incubation, average of at least two duplicate experiments
Method in brief: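 Full-length USP19 preincubated 30 min at RT with inhibitor (200 μM to 2 μM series, 8–18 points) before adding 500 nM Ubiquitin-Lys-TAMRA substrate.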

IC50 [µM] | SMILES
5 to 50 | CN(CC1CC(F)C1)C(=O)N1CCC(O)(Cn2cnc(-c3ccccc3)cc2=O)C2(CCCC2)C1 (stereo not shown) [Example 239, N-((3-Fluorocyclobutyl)methyl)-10-hydroxy-N-methyl-10-((6-oxo-4-phenylpyrimidin-1(6H)-yl)methyl)-7-azaspiro[4.5]decane-7-carboxamide]
5 to 50 | CC1(C)CCCN1C(=O)N1CCC(O)(Cn2cnc(-c3ccccc3)cc2=O)C2(CCCC2)C1 (stereo not shown) [Example 240, 3-((7-(2,2-Dimethylpyrrolidine-1-carbonyl)-10-hydroxy-7-azaspiro[4.5]decan-10-yl)methyl)-6-phenylpyrimidin-4(3H)-one]
5 to 50 | O=C(N1CCC(C(F)F)CC1)N1CCC(O)(Cn2cnc(-c3ccccc3)cc2=O)C2(CCCC2)C1 (stereo not shown) [Example 241, 3-((7-(4-(Difluoromethyl)piperidine-1-carbonyl)-10-hydroxy-7-azaspiro[4.5]decan-10-yl)methyl)-6-phenylpyrimidin-4(3H)-one]
50 to 250 | CN(Cc1ccco1)C(=O)N1CCC(O)(Cn2cnc(-c3ccccc3)cc2=O)C2(CCCC2)C1 (stereo not shown) [Example 242, N-(Furan-2-ylmethyl)-10-hydroxy-N-methyl-10-((6-oxo-4-phenylpyrimidin-1(6H)-yl)methyl)-7-azaspiro[4.5]decane-7-carboxamide]
5 to 50 | O=C(N1CCC(O)(Cn2cnc(-c3ccccc3)cc2=O)C2(CCCC2)C1)N1CCOC2CC21 (stereo not shown) [Example 243, 3-((7-(2-Oxa-5-azabicyclo[4.1.0]heptane-5-carbonyl)-10-hydroxy-7-azaspiro[4.5]decan-10-yl)methyl)-6-phenylpyrimidin-4(3H)-one]
5 to 50 | CN(Cc1cccnc1)C(=O)N1CCC(O)(Cn2cnc(-c3ccccc3)cc2=O)C2(CCCC2)C1 (stereo not shown) [Example 244, 10-Hydroxy-N-methyl-10-((6-oxo-4-phenylpyrimidin-1(6H)-yl)methyl)-N-(pyridin-3-ylmethyl)-7-azaspiro[4.5]decane-7-carboxamide]
0.5 to 5 | O=C(N1CCC(O)(Cn2cnc(-c3ccccc3)cc2=O)C2(CCCC2)C1)N1CCCC1c1cccnc1 (stereo not shown) [Example 245, 3-((10-Hydroxy-7-(2-(pyridin-3-yl)pyrrolidine-1-carbonyl)-7-azaspiro[4.5]decan-10-yl)methyl)-6-phenylpyrimidin-4(3H)-one]
5 to 50 | O=C(N1CCC(n2cccc2)C1)N1CCC(O)(Cn2cnc(-c3ccccc3)cc2=O)C2(CCCC2)C1 (stereo not shown) [Example 246, 3-((7-(3-(1H-Pyrrol-1-yl)pyrrolidine-1-carbonyl)-10-hydroxy-7-azaspiro[4.5]decan-10-yl)methyl)-6-phenylpyrimidin-4(3H)-one]
5 to 50 | CC(C1CC1)N(C)C(=O)N1CCC(O)(Cn2cnc(-c3ccccc3)cc2=O)C2(CCCC2)C1 (stereo not shown) [Example 247, N-(1-Cyclopropylethyl)-10-hydroxy-N-methyl-10-((6-oxo-4-phenylpyrimidin-1(6H)-yl)methyl)-7-azaspiro[4.5]decane-7-carboxamide]
5 to 50 | O=C(N1CCC(O)(Cn2cnc(-c3ccccc3)cc2=O)C2(CCCC2)C1)N1CCOCC1C1CC1 (stereo not shown) [Example 248, 3-((7-(3-Cyclopropylmorpholine-4-carbonyl)-10-hydroxy-7-azaspiro[4.5]decan-10-yl)methyl)-6-phenylpyrimidin-4(3H)-one]
0.5 to 5 | O=C(N1CCC(O)(Cn2cnc(-c3ccccc3)cc2=O)C2(CCCC2)C1)N1CCCC1c1ccncc1 (stereo not shown) [Example 249, 3-((10-Hydroxy-7-(2-(pyridin-4-yl)pyrrolidine-1-carbonyl)-7-azaspiro[4.5]decan-10-yl)methyl)-6-phenylpyrimidin-4(3H)-one]
5 to 50 | O=C(N1CCCC2(CC2)C1)N1CCC(O)(Cn2cnc(-c3ccccc3)cc2=O)C2(CCCC2)C1 (stereo not shown) [Example 250, 3-((10-Hydroxy-7-(5-azaspiro[2.5]octane-5-carbonyl)-7-azaspiro[4.5]decan-10-yl)methyl)-6-phenylpyrimidin-4(3H)-one]
0.5 to 5 | CN(Cc1cccc(C#N)c1)C(=O)N1CCC(O)(Cn2cnc(-c3ccccc3)cc2=O)C2(CCCC2)C1 (stereo not shown) [Example 251, N-(3-Cyanobenzyl)-10-hydroxy-N-methyl-10-((6-oxo-4-phenylpyrimidin-1(6H)-yl)methyl)-7-azaspiro[4.5]decane-7-carboxamide]
5 to 50 | O=C(N1CC(C2CC2)C1)N1CCC(O)(Cn2cnc(-c3ccccc3)cc2=O)C2(CCCC2)C1 (stereo not shown) [Example 252, 3-((7-(3-Cyclopropylazetidine-1-carbonyl)-10-hydroxy-7-azaspiro[4.5]decan-10-yl)methyl)-6-phenylpyrimidin-4(3H)-one]
5 to 50 | O=C(N1CCOC(F)(F)C1)N1CCC(O)(Cn2cnc(-c3ccccc3)cc2=O)C2(CCCC2)C1 (stereo not shown) [Example 253, 3-((7-(2,2-Difluoromorpholine-4-carbonyl)-10-hydroxy-7-azaspiro[4.5]decan-10-yl)methyl)-6-phenylpyrimidin-4(3H)-one]
< 0.5 | O=C(NCc1ccccc1F)N1CCC(O)(Cn2cnc(-c3ccccc3)cc2=O)C2(CCCC2)C1 (stereo not shown) [Example 254, N-(2-Fluorobenzyl)-10-hydroxy-10-((6-oxo-4-phenylpyrimidin-1(6H)-yl)methyl)-7-azaspiro[4.5]decane-7-carboxamide]
0.5 to 5 | CC(NC(=O)N1CCC(O)(Cn2cnc(-c3ccccc3)cc2=O)C2(CCCC2)C1)c1ccoc1 (stereo not shown) [Example 255, N-(1-(Furan-3-yl)ethyl)-10-hydroxy-10-((6-oxo-4-phenylpyrimidin-1(6H)-yl)methyl)-7-azaspiro[4.5]decane-7-carboxamide]
5 to 50 | CC1(CNC(=O)N2CCC(O)(Cn3cnc(-c4ccccc4)cc3=O)C3(CCCC3)C2)CC1 (stereo not shown) [Example 256, 10-Hydroxy-N-((1-methylcyclopropyl)methyl)-10-((6-oxo-4-phenylpyrimidin-1(6H)-yl)methyl)-7-azaspiro[4.5]decane-7-carboxamide]
5 to 50 | N#Cc1cccc(CNC(=O)N2CCC(O)(Cn3cnc(-c4ccccc4)cc3=O)C3(CCCC3)C2)c1 (stereo not shown) [Example 257, N-(3-Cyanobenzyl)-10-hydroxy-10-((6-oxo-4-phenylpyrimidin-1(6H)-yl)methyl)-7-azaspiro[4.5]decane-7-carboxamide]
5 to 50 | N#CCc1ccc(CNC(=O)N2CCC(O)(Cn3cnc(-c4ccccc4)cc3=O)C3(CCCC3)C2)cc1 (stereo not shown) [Example 258, N-(4-(Cyanomethyl)benzyl)-10-hydroxy-10-((6-oxo-4-phenylpyrimidin-1(6H)-yl)methyl)-7-azaspiro[4.5]decane-7-carboxamide]
5 to 50 | O=C(NCC1=CCCOC1)N1CCC(O)(Cn2cnc(-c3ccccc3)cc2=O)C2(CCCC2)C1 (stereo not shown) [Example 259, N-((5,6-Dihydro-2H-pyran-3-yl)methyl)-10-hydroxy-10-((6-oxo-4-phenylpyrimidin-1(6H)-yl)methyl)-7-azaspiro[4.5]decane-7-carboxamide]
5 to 50 | O=C(NCc1ccc2c(c1)COC2)N1CCC(O)(Cn2cnc(-c3ccccc3)cc2=O)C2(CCCC2)C1 (stereo not shown) [Example 260, N-((1,3-Dihydroisobenzofuran-5-yl)methyl)-10-hydroxy-10-((6-oxo-4-phenylpyrimidin-1(6H)-yl)methyl)-7-azaspiro[4.5]decane-7-carboxamide]
5 to 50 | O=C(N1CCC(O)(Cn2cnc(-c3ccccc3)cc2=O)C2(CCCC2)C1)N1CCOCC12CCCCC2 (stereo not shown) [Example 261, 3-((10-Hydroxy-7-(4-oxa-1-azaspiro[5.5]undecane-1-carbonyl)-7-azaspiro[4.5]decan-10-yl)methyl)-6-phenylpyrimidin-4(3H)-one]
5 to 50 | O=C(N1CCC(C(F)F)C1)N1CCC(O)(Cn2cnc(-c3ccccc3)cc2=O)C2(CCCC2)C1 (stereo not shown) [Example 262, 3-((7-(3-(Difluoromethyl)pyrrolidine-1-carbonyl)-10-hydroxy-7-azaspiro[4.5]decan-10-yl)methyl)-6-phenylpyrimidin-4(3H)-one]
5 to 50 | O=C(N1CCC(O)(Cn2cnc(-c3ccccc3)cc2=O)C2(CCCC2)C1)N1CCOCC1C(F)(F)F (stereo not shown) [Example 263, 3-((10-Hydroxy-7-(3-(trifluoromethyl)morpholine-4-carbonyl)-7-azaspiro[4.5]decan-10-yl)methyl)-6-phenylpyrimidin-4(3H)-one]
